Experimental findings from US20220000967A1, “SYNTHETIC PEPTIDES INDUCING IMMUNOGENIC CELL DEATH” (SORBONNE UNIVERSITE, priority 2018, published 2022) are described below.

Like-named read-outs stand apart in the source and are kept apart here.

In series [1] the test system is CEM. Put plainly: HMGB1 release assay (ELISA). The series is classed as cell-based, human. The note with it: PKHB1 CC100, 2h. Here is the method:
(§1) Supernatants of untreated and treated (PKHB1 CC50 and CC100 for each cell line) leukemic cells (1×10^6 cells/mL) were used to measure extracellular HMGB1 using the HMGB1 ELISA kit for CEM, MOLT-4 or L5178Y-R cells (BioAssay ELISA kit Human or mouse respectively, US biological Life Science Salem, Mass., USA), following the manufacturer instructions. Absorbance was assessed at 450 nm.
Background: ELISA stands for enzyme-linked immunosorbent assay.

For series [2], the system named is MOLT-4. Put plainly: HMGB1 release assay (ELISA). The series is classed as cell-based, human. Here is the method:
as §1

For series [3], the system named is CEM. Description: ATP release assay (luciferase bioluminescence). The series is classed as cell-based, human. As to conditions: CC50 and CC100, 2h. Here is the method: (§2) 1×10^6 cells/mL were treated with PKHB1 (CC50 and CC100 for each cell lines) for 2h. Supernatants were used to assess extracellular ATP by a luciferase assay (ENLITEN kit, Promega, Madison Wis., USA) following the manufacturer's instructions. Bioluminescence was assessed in a microplate reader (Synergy HT, BioTek, Software Gen5, Winooski, Vt., USA) at 560 nm.

In series [4] the test system is MOLT-4. Description: ATP release assay (luciferase bioluminescence). The series is classed as cell-based, human. As to conditions: CC50 and CC100, 2h. Here is the method: as §2
Series [5] has as its system L5178Y-R. Put plainly: HMGB1 release assay (ELISA). The series is classed as cell-based, murine. The note with it: PKHB1 CC100, 2h. Here is the method: as §1
Series [6] has as its system L5178Y-R. Put plainly: ATP release assay (luciferase bioluminescence). The series is classed as cell-based, murine. The note with it: CC50 and CC100, 2h. Here is the method:
as §2

The subject of series [7] is L5178Y-R. Put plainly: Loss of mitochondrial transmembrane potential (TMRE). The series is classed as cell-based, murine. The note with it: PKHB1 CC50, 2h. Here is the method: (§3) CEM, MOLT-4 (T-acute lymphoblastic leukemia, T-ALL), and L5178Y-R (murine lymphoblastic T cell line) were obtained from ATCC. Human and murine PBMCs, human CD4+ and CD8+ T cells, and primary lymphoid organ's cells were obtained from healthy individuals. Cells were maintained in RPMI-1640 medium supplemented with 10% of fetal bovine serum, 2 mM L-glutamine, 100 U/mL penicillin-streptomycin (GIBCO by Life Technologies, Grand Island, N.Y., USA), and incubated at 37° C. in a controlled humidified atmosphere with 5% CO2. Cell count was performed using trypan blue (0.4% Sigma-Aldrich), a Neubauer chamber and an optic microscope (Zeiss Primo Star) as proposed by the ATCC's standard protocols. Flow Cytometry. Cell Death Induction, and Inhibition Annexin-V-allophycocyanin (Ann-V-APC 0.1 μg/ml; BD Pharingen, San Jose Calif., USA), propidium iodide (PI, 0.5 μg/ml Sigma-Aldrich), and tetramethylrhodamine ethyl ester (TMRE, 20 nM, Sigma-Aldrich) were used for phosphatidylserine exposure, cell viability, and mitochondrial transmembrane potential (UΨm) quantification, respectively, in a BD AccuryC6 flow cytometer (BD Biosciences) (total population 10,000 cells). Data were analyzed using FlowJo software. 1×10^6 cells/mL were treated for 2h with PKHB1 (as indicated). […]

Series [8] is described as follows: Cell death by Annexin-V-APC/PI flow cytometry. The series is classed as cell-based. The note with it: MOLT-4, 2h; read-out: cytotoxic concentration that induces around 50% of cell death (CC50). Here is the method:
(§4) CEM, MOLT-4 (T-acute lymphoblastic leukemia, T-ALL), and L5178Y-R (murine lymphoblastic T cell line) were obtained from ATCC. Human and murine PBMCs, human CD4+ and CD8+ T cells, and primary lymphoid organ's cells were obtained from healthy individuals. Cells were maintained in RPMI-1640 medium supplemented with 10% of fetal bovine serum, 2 mM L-glutamine, 100 U/mL penicillin-streptomycin (GIBCO by Life Technologies, Grand Island, N.Y., USA), and incubated at 37° C. in a controlled humidified atmosphere with 5% CO2. Cell count was performed using trypan blue (0.4% Sigma-Aldrich), a Neubauer chamber and an optic microscope (Zeiss Primo Star) as proposed by the ATCC's standard protocols. Flow Cytometry. Cell Death Induction, and Inhibition Annexin-V-allophycocyanin (Ann-V-APC 0.1 μg/ml; BD Pharingen, San Jose Calif., USA), propidium iodide (PI, 0.5 μg/ml Sigma-Aldrich), and tetramethylrhodamine ethyl ester (TMRE, 20 nM, Sigma-Aldrich) were used for phosphatidylserine exposure, cell viability, and mitochondrial transmembrane potential (UΨm) quantification, respectively, in a BD AccuryC6 flow cytometer (BD Biosciences) (total population 10,000 cells). Data were analyzed using FlowJo software. 1×10^6 cells/mL were treated for 2h with PKHB1 (as indicated). For the inhibition assays, calcium chelator, BAPTA (5 mM, CalbioChem, Merck, Billerica Mass., USA); or the pancaspase inhibitor Q-VD-OPh (QVD, 10 μM, BioVision, Milpitas Calif., USA); were added 30 min before PKHB1.
(Flow cytometry measures light scatter and fluorescence of single cells or particles in a stream.)

The test system of series [9] is MOLT-4. Put plainly: Cell death by Annexin-V-APC/PI flow cytometry. The series is classed as cell-based. The note with it: MOLT-4, 2h; for cell death percentage: PKHB1 200 μM. Here is the method:
as §4

The test system of series [10] is CEM. Put plainly: Cell death by Annexin-V-APC/PI flow cytometry. As to conditions: 2h; for cell death percentage: PKHB1 200 μM. The series is classed as cell-based, human. Here is the method: as §4
Series [11] is described as follows: Cell death by Annexin-V-APC/PI flow cytometry. The note with it: CEM, 2h; read-out: cytotoxic concentration that induces around 50% of cell death (CC50). The series is classed as cell-based, human. Here is the method: as §4
Series [12] concerns L5178Y-R. Put plainly: Calreticulin exposure (flow cytometry, confocal microscopy). The series is classed as cell-based, murine. As to conditions: CC50 of PKHB1, 2h. Here is the method: 1×10^6 cells/mL were plated, treated with PKHB1, and incubated for 2h. Cells were harvested, washed, and stained with Calreticulin-PE (FMC-75, Enzo Life Science, Farmingdale, N.Y., USA) antibody (1:1000) in FACS buffer. After 1h of incubation in darkness at room temperature, cells were washed and resuspended in 100Lp of FACS buffer to be assessed by flow cytometry. For confocal microscopy (OlympusX70), poly-Llysine was added 24h to sterile coverslips and 1×10^6 cells/mL were seeded. PKHB1 was added and incubated for 2h. Then, the cells were stained with Calreticulin-PE antibody (1:500) and Hoechst, incubated 1h, and assessed by confocal microscopy.

Series [13] relates to CEM. Put plainly: Loss of mitochondrial transmembrane potential (TMRE). The series is classed as cell-based, human. As to conditions: PKHB1 CC50, 2h. Here is the method: as §3
Series [14] deals with MOLT-4. Described as above. The note with it: PKHB1 CC50, 2h. The series is classed as cell-based, human. Here is the method:
as §3

[15] abbreviates: pre-incubated 30 min with Ca2+ chelator BAPTA.
Setting [16] is: pre-incubated 30 min with pan-caspase inhibitor Q-VD-OPH.

On to `CSCC[C@H](NC(=O)[C@@H](NC(=O)[C@@H](NC(=O)[C@H](Cc1ccc(O)cc1)NC(=O)[C@H](Cc1ccccc1)NC(=O)[C@H](CCCNC(=N)N)NC(=O)[C@H](N)CCCCN)C(C)C)C(C)C)C(=O)N[C@@H](Cc1c[nH]c2ccccc12)C(=O)N[C@@H](CCCCN)C(=O)N[C@H](CCCCN)C(=O)O` [PKHB1, (D)K-R-F-Y-V-V-M-W-K-(D)K], for which the “HMGB1 release compared to the untreated control” value in the series with CEM [1] was 6 fold; with MOLT-4 [2] (PKHB1 CC100, 2h), 4 fold; in the series with L5178Y-R [5], 2 fold. Moreover, the “HMGB1 release with respect to the control” value in the series on MOLT-4 [2] (PKHB1 CC50, 2h) came out at 8 fold. Besides, the “presence of ATP in supernatants” value in the series with CEM [3], in the series with MOLT-4 [4] and with L5178Y-R [6] was “significantly augmented” in each case. The “loss of mitochondrial membrane potential” value in the series on L5178Y-R [7] is reported as 51%±8; in the series with CEM [13], 49%±5; in the series on MOLT-4 [14] it was 61%±4. The CC50 in series [8] was 300 µM; in [11], 200 µM. Further, the “cell death (Ann-V-APC/PI positive cells)” value in the series on MOLT-4 [9] (100, 200 and 300 μM) was “concentration-dependent”; in the series on CEM [10] (100, 200 and 300 μM) it was “concentration-dependent”. For the same compound, the cell death percentage was 57%±4 with MOLT-4 [9] (left alone); 38%±3 in the series with MOLT-4 [9] (setting [15]); 51%±6 in the series with MOLT-4 [9] (setting [16]); 51%±4 in the series with CEM [10] (left alone); 18%±11 in the series with CEM [10] (setting [15]); 48%±5 in the series with CEM [10] (setting [16]). The CRT exposure result with L5178Y-R [12] is reported as “significant increase”.
